Measured values reported in paper PMC6599797, “Functional characterization of three flavonoid glycosyltransferases from Andrographis paniculata” (Royal Society Open Science, 2019).

Legend:
Format in all cases: biochemical
ApUFGT1 [1] = target: T1, ApUFGT1 (Andrographis paniculata, UniProt A0A8E3MB50); assay: UPLC / Q-TOF-MS conversion assay; conditions: UDP-glucose 3200 µM, aglycone 320 µM; Tris-HCl pH 8.0, 40 °C, 6 h
T1 construct: gene UGT2
T1 sequence (A0A8E3MB50 1-485): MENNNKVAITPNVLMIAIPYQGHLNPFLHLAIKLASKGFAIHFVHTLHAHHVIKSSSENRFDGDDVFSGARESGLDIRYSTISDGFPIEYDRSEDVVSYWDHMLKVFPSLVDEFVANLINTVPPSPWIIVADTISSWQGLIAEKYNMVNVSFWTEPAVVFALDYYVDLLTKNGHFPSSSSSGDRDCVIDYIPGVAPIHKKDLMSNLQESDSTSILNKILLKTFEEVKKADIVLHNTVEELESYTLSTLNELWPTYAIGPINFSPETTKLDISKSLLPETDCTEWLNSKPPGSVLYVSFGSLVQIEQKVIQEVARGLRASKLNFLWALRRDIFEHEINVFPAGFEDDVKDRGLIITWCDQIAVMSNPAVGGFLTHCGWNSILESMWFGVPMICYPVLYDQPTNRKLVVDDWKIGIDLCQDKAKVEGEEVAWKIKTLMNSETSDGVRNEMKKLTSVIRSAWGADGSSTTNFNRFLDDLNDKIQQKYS

ApUFGT2 [2] = target: T2, ApUFGT2 (Andrographis paniculata, UniProt A0A8E3S624); assay: UPLC / Q-TOF-MS conversion assay; conditions: UDP-glucose 3200 µM, aglycone 320 µM; Tris-HCl pH 8.0, 40 °C, 6 h
T2 construct: gene UGT8
T2 sequence (A0A8E3S624 1-479): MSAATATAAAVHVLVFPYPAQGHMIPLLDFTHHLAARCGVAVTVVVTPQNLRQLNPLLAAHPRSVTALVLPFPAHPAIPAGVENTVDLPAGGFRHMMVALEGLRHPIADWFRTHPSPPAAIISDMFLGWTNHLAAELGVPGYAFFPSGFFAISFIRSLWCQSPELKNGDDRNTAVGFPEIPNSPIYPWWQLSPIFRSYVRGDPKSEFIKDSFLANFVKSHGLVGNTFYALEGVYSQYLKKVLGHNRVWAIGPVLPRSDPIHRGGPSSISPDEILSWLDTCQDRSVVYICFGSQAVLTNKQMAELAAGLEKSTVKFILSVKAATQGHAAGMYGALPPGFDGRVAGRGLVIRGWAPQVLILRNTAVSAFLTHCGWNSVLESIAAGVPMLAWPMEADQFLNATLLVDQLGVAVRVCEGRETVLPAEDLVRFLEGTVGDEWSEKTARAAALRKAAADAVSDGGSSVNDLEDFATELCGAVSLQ

ApUFGT3 [3] = target: T3, ApUFGT3 (Andrographis paniculata, UniProt A0A8E3S6A8); assay: UPLC / Q-TOF-MS conversion assay; conditions: UDP-glucose 3200 µM, aglycone 320 µM; Tris-HCl pH 8.0, 40 °C, 6 h
T3 construct: gene UGT4
T3 sequence (A0A8E3S6A8 1-463): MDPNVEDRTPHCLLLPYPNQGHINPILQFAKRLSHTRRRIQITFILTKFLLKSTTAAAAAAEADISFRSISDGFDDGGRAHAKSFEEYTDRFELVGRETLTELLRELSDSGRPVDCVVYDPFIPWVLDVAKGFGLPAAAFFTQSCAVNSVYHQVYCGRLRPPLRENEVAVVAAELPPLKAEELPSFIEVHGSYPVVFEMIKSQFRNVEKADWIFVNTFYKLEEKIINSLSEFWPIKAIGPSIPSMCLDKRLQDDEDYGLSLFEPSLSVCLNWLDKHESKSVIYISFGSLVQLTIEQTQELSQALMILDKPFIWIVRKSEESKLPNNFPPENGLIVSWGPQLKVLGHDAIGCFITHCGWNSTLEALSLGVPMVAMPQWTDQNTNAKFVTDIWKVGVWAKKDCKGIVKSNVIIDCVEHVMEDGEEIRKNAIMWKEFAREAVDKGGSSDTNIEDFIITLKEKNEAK

ApUFGT3 [4] = target: T3, ApUFGT3; assay: UPLC conversion assay; conditions: UDP-glucose donor; 50 mM Tris-HCl pH 8.0, 40 °C
ApUFGT2 [5] = target: T2, ApUFGT2; assay: UPLC conversion assay; conditions: UDP-glucose donor; 50 mM Tris-HCl pH 8.0, 40 °C
ApUFGT1 [6] = target: T1, ApUFGT1; assay: UPLC conversion assay; conditions: UDP-glucose donor; 50 mM Tris-HCl pH 8.0, 40 °C

What does the source list for O=c1cc(-c2ccc(O)cc2)oc2cc(O)cc(O)c12 [compound 1, apigenin]?
UPLC / Q-TOF-MS conversion assay (ApUFGT1 [1]): Product peak 1c was confirmed as apigetrin, namely, apigenin 7-O-glucoside; UPLC / Q-TOF-MS conversion assay (ApUFGT2 [2]): Product peak 1c was confirmed as apigetrin, namely, apigenin 7-O-glucoside; UPLC / Q-TOF-MS conversion assay (ApUFGT3 [3]): Product peak 1c was confirmed as apigetrin, namely, apigenin 7-O-glucoside

Which UPLC conversion assay (ApUFGT3 [4]) does the source give for COc1c(O)cc(O)c2c(=O)cc(-c3ccccc3)oc12 [wogonin] here?
The UPLC conversion assay was “glycosylation of wogonin catalysed by ApUFGTs”.

And the UPLC conversion assay (ApUFGT2 [5])?
Its UPLC conversion assay is “glycosylation of wogonin catalysed by ApUFGTs”.

What about the UPLC conversion assay (ApUFGT1 [6]) of the same molecule?
Its UPLC conversion assay is “glycosylation of wogonin catalysed by ApUFGTs”.
